The values below come from patent US6579881B2 (Eisai Co., Ltd., priority 1997, dated 2003).

One assay addresses T1, serotonin 1A receptor (Rattus norvegicus, UniProt P19327).
T1 construct: To the receptor fraction of the hippocampus were added a test compound and 0.5 nM of [^3H]; 8-hydroxy-dipropylaminotetralin; from tissue; host or cells: SD rat hippocampus, membrane (receptor) fraction
T1 sequence (P19327 1-422): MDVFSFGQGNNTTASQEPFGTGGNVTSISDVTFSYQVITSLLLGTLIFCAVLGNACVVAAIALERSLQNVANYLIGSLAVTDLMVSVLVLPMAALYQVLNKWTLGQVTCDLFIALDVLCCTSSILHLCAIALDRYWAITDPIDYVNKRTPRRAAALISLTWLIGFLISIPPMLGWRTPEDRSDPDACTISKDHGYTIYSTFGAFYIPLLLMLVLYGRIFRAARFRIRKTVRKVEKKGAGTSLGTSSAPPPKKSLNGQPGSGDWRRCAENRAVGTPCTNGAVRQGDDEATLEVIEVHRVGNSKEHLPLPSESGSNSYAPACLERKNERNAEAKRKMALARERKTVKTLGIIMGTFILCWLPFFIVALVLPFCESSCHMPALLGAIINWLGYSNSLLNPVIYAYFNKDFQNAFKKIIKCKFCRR
Put plainly: Binding test on [3H] 8-hydroxy-dipropylaminotetralin (serotonin 1A receptor). As to conditions: [3H] 8-OH-DPAT 0.5 nM, receptor fraction of rat hippocampus; read-out: 5HT1a.

The target in the next assay is serotonin 2 receptor (Rattus norvegicus, UniProt P14842). Briefly: Binding test on [3H] ketanserin (serotonin 2 receptor). The conditions noted are these: [3H] ketanserin 0.3 nM, receptor fraction of rat cerebral cortex; read-out: 5HT2.
serotonin 2 receptor, sequence (P14842 whole entry): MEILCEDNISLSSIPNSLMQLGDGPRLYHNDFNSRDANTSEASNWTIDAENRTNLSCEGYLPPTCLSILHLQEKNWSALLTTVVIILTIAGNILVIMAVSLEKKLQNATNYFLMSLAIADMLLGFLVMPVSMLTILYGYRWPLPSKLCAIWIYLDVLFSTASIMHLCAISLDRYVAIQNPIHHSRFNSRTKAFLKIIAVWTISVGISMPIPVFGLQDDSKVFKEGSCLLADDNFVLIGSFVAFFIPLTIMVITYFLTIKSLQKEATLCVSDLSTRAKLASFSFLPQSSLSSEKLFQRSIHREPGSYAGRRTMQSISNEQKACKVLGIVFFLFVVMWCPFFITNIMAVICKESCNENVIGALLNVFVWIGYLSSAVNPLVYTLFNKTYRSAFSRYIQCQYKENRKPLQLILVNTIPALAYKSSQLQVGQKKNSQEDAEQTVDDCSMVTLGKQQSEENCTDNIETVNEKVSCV

`Fc1ccc(CCN2CCC(n3ccc4ccc(F)cc43)CC2)cc1` [Example 333, 1-[1-(4-fluorophenethyl)piperidin-4-yl]-6-fluoroindole]: the Ki at serotonin 1A receptor is 1.08 nM; on serotonin 2 receptor, over 20 nM.

For `COc1ccc(CCN2CCC(N3CCc4ccc(F)cc43)CC2)cc1` [Example 229, 1-[1-(4-methoxyphenethyl)piperidin-4-yl]-6-fluoroindoline], the Ki at serotonin 1A receptor was 2.5 nM; at serotonin 2 receptor, over 200 nM.

For `FCc1ccc2c(c1)N(C1CCN(CCc3ccc(F)cc3)CC1)CC2` [Example 143, 1-[1-(4-fluorophenethyl)piperidin-4-yl]-6-fluoromethylindoline], the Ki on serotonin 1A receptor amounted to 1.86 nM; at serotonin 2 receptor, 3.36 nM.

As to `Fc1ccc(OCCCN2CCC(N3CCc4ccccc43)CC2)cc1` [Example 69, 1-{1-[3-(4-fluorophenoxy)propyl]piperidin-4-yl}indoline], the Ki stood at 9.7 nM on serotonin 1A receptor and 29.9 nM on serotonin 2 receptor.

On to `CCN1CCN([C@@H]2c3cc(OC)ccc3CC[C@H]2Oc2ccc(C(F)(F)F)cc2)CC1` (relative stereo) [Example 279, trans-1-(4-ethylpiperazin-1-yl)-7-methoxy-2-(4-trifluoromethylphenoxy)-1,2,3,4-tetrahydronaphthalene], for which the Ki at serotonin 1A receptor came to 0.22 nM; at serotonin 2 receptor, 90.4 nM.

With `OC(c1cncnc1)c1ccc2c(c1)N(C1CCN(CCc3ccc(F)cc3)CC1)CC2` (centres unmarked) [Example 198, 1-[1-(4-fluorophenethyl)piperidin-4-yl]-6-[1-hydroxy-1-(pyrimidin-5-yl)methyl]indoline], the values for the Ki at serotonin 1A receptor and on serotonin 2 receptor were 13.7 nM and 2.21 nM, respectively.

Turning to `COc1ccc(CCN2CCC(N3CCc4ccccc43)CC2)cn1` [Example 52, 1-{1-[2-(2-methoxy-5-pyridyl)ethyl]piperidin-4-yl}indoline], the results for the Ki at serotonin 1A receptor and on serotonin 2 receptor were 2.5 nM and 5.6 nM, respectively.

With `c1ccc2c(c1)CCN2C1CCN(CCc2nccs2)CC1` [Example 60, 1-[1-(2-thiazolylethyl)piperidin-4-yl]indoline], the values for the Ki at serotonin 1A receptor and at serotonin 2 receptor were 60.8 nM and over 200 nM, respectively.

For the compound `CN(c1ccc2c(c1)N(C1CCN(CCc3ccc(F)cc3)CC1)CC2)S(C)(=O)=O` [Example 120], the Ki at serotonin 1A receptor is 1 nM; at serotonin 2 receptor, 11.2 nM.

`c1ccc(CCN2CCC(N3CCc4ccccc43)CC2)nc1` [Example 50, 1-{1-[2-(2-pyridyl)ethyl]piperidin-4-yl}indoline]: the results for the Ki at serotonin 1A receptor and at serotonin 2 receptor were 31.2 nM and 52.2 nM, respectively.

As for `c1ccc(CCN2CCC(N3CCc4ccccc43)CC2)cc1` [Example 3, 1-(1-phenethylpiperidin-4-yl)indoline], the Ki stood at 28.7 nM at serotonin 1A receptor and 17.4 nM on serotonin 2 receptor.

Turning to `CC(=O)NC(C)c1ccc2c(c1)N(C1CCN(CCc3ccc(F)cc3)CC1)CC2` (centres unmarked) [Example 165, 1-[1-(4-fluorophenethyl)piperidin-4-yl]-6-(1-acetamidoethyl)indoline], the Ki was 5.5 nM at serotonin 1A receptor and 1.22 nM at serotonin 2 receptor.

In the case of `c1ccc2c(c1)CCN2C1CCN(CCc2c[nH]c3ccccc23)CC1` [Example 62, 1-{1-[(indol-3-yl)ethyl]-piperidin-4-yl}indoline], the Ki on serotonin 1A receptor worked out at 6.2 nM; at serotonin 2 receptor it was 7.4 nM.

For the compound `NC(=O)NCc1ccc2c(c1)N(C1CCN(CCc3ccc(F)cc3)CC1)CC2` [Example 161, 1-[1-(4-fluorophenethyl)piperidin-4-yl]-6-ureidomethylindoline], the Ki turned out to be 3.23 nM at serotonin 1A receptor and 0.43 nM on serotonin 2 receptor.

For the compound `CCC(=O)NCc1ccc2c(c1)N(C1CCN(CCc3ccc(F)cc3)CC1)CC2` [Example 156, 1-[1-(4-fluorophenethyl)piperidin-4-yl]-6-propionylaminomethylindoline], the Ki stood at 7.8 nM at serotonin 1A receptor and 2.6 nM on serotonin 2 receptor.

For the compound `CC(C)(O)c1ccc2c(c1)N(C1CCN(CCc3ccc(F)cc3)CC1)CC2` [Example 139, 1-[1-(4-fluorophenethyl)piperidin-4-yl]-6-(1-hydroxy-1-methylethyl)indoline], the Ki on serotonin 1A receptor was 2.31 nM; on serotonin 2 receptor it was 8.8 nM.
